Measured values published in US20250098679A1, “HERBICIDAL PYRIDONE DERIVATIVES” (SYNGENTA CROP PROTECTION AG, priority 2021, published 2025).

What was measured:
Type in all cases: in vivo
Details in all cases: evaluated after 13 days
[1] = test system: Ipomoea hederacea (IPOHE); assay: Pre-emergence Test, Ipomoea hederacea (IPOHE)
[2] = test system: Echinochloa crus-galli (ECHCG); assay: Pre-emergence Test, Echinochloa crus-galli (ECHCG)
[3] = test system: Amaranthus palmeri (AMAPA); assay: Pre-emergence Test, Amaranthus palmeri (AMAPA)
Zea mays (ZEAMX) [4] = assay: Pre-emergence Test, Zea mays (ZEAMX)
Zea mays (ZEAMX) [5] = assay: Post-emergence Test, Zea mays (ZEAMX); parameters: key to percentage damage caused to the plant, ZEAMX (five-point scale): 5=81-100%, 4=61-80%, 3=41-60%, 2=21-40%, 1=0-20% damage
Outline: (§1)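 Percent plant damage was rated 13 days post-application on a 1–5 scale (1=0-20%, 5=81-100%). Application used an aqueous acetone (50:50)/0.5% Tween 20 spray, normally 1000 g/ha, with controlled glasshouse conditions (24/16 °C, 14 h light, 65% humidity).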

[6] = test system: Amaranthus retoflexus (AMARE); assay: Pre-emergence Test, Amaranthus retoflexus (AMARE)
[7] = test system: Echinochloa crus-galli (ECHCG); assay: Post-emergence Test, Echinochloa crus-galli (ECHCG); parameters: key to percentage damage caused to the plant, ECHCG (five-point scale): 5=81-100%, 4=61-80%, 3=41-60%, 2=21-40%, 1=0-20% damage
Outline: as §1

Setaria faberi (SETFA) [8] = assay: Pre-emergence Test, Setaria faberi (SETFA)
[9] = test system: Ipomoea hederacea (IPOHE); assay: Post-emergence Test, Ipomoea hederacea (IPOHE); parameters: key to percentage damage caused to the plant, IPOHE (five-point scale): 5=81-100%, 4=61-80%, 3=41-60%, 2=21-40%, 1=0-20% damage
Outline: as §1

[10] = test system: Amaranthus palmeri (AMAPA); assay: Post-emergence Test, Amaranthus palmeri (AMAPA); parameters: key: 5=81-100%, 4=61-80%, 3=41-60%, 2=21-40%, 1=0-20% damage
Outline: as §1

Setaria faberi (SETFA) [11] = assay: Post-emergence Test, Setaria faberi (SETFA); parameters: key to percentage damage caused to the plant, SETFA (five-point scale): 5=81-100%, 4=61-80%, 3=41-60%, 2=21-40%, 1=0-20% damage
Outline: as §1

[12] = test system: Amaranthus retoflexus (AMARE); assay: Post-emergence Test, Amaranthus retoflexus (AMARE); parameters: key to percentage damage caused to the plant, AMARE (five-point scale): 5=81-100%, 4=61-80%, 3=41-60%, 2=21-40%, 1=0-20% damage
Outline: as §1

| SMILES | Pre-emergence Test IPOHE, percentage damage caused to the plant (five-point scale) ([1]; 1000 g/ha) | Pre-emergence Test ECHCG, percentage damage caused to the plant (five-point scale) ([2]; 1000 g/ha) | Pre-emergence Test AMAPA, percentage damage caused to the plant (five-point scale) ([3]; 1000 g/ha) | Pre-emergence Test ZEAMX, percentage damage caused to the plant (five-point scale) (Zea mays (ZEAMX) [4]; 1000 g/ha) | percentage damage caused to the plant, ZEAMX (five-point scale) (Zea mays (ZEAMX) [5]; 1000 g/ha) | Pre-emergence Test AMARE, percentage damage caused to the plant (five-point scale) ([6]; 1000 g/ha) | percentage damage caused to the plant, ECHCG (five-point scale) ([7]; 1000 g/ha) | Pre-emergence Test SETFA, percentage damage caused to the plant (five-point scale) (Setaria faberi (SETFA) [8]; 1000 g/ha) | percentage damage caused to the plant, IPOHE (five-point scale) ([9]; 1000 g/ha) | percentage damage caused to the plant, AMAPA (five-point scale) ([10]; 1000 g/ha) | percentage damage caused to the plant, SETFA (five-point scale) (Setaria faberi (SETFA) [11]; 1000 g/ha) | percentage damage caused to the plant, AMARE (five-point scale) ([12]; 1000 g/ha) | percentage damage caused to the plant, ZEAMX (five-point scale) (Zea mays (ZEAMX) [5]; 250 g/Ha) | percentage damage caused to the plant, ECHCG (five-point scale) ([7]; 250 g/Ha) | percentage damage caused to the plant, IPOHE (five-point scale) ([9]; 250 g/Ha) | percentage damage caused to the plant, AMAPA (five-point scale) ([10]; 250 g/Ha) | percentage damage caused to the plant, SETFA (five-point scale) (Setaria faberi (SETFA) [11]; 250 g/Ha) | percentage damage caused to the plant, AMARE (five-point scale) ([12]; 250 g/Ha) | Pre-emergence Test IPOHE, percentage damage caused to the plant (five-point scale) ([1]; 250 g/Ha (*)) | Pre-emergence Test ECHCG, percentage damage caused to the plant (five-point scale) ([2]; 250 g/Ha (*)) | further results |
| --- | --- | --- | --- | --- | --- | --- | --- | --- | --- | --- | --- | --- | --- | --- | --- | --- | --- | --- | --- | --- | --- |
| CCn1c(Cn2ccc(Cl)n2)cc(=O)c(C(=O)O)c1-c1ccc(S(C)(=O)=O)c(Cl)c1 [Compound 130, 2-(3-chloro-4-methylsulfonyl-phenyl)-6-[(3-chloropyrazol-1-yl)methyl]-1-ethyl-4-oxo-pyridine-3-carboxylic acid] | 0 | 0 | 1 (1=0-20%) | 0 | 0 | 1 (1=0-20%) | 0 | 0 | 1 (1=0-20%) | 2 (2=21-40%) | 1 (1=0-20%) | 1 (1=0-20%) | – | – | – | – | – | – | – | – | – |
| CCn1c(Cn2ccc(C(F)(F)F)n2)cc(=O)c(C(=O)O)c1-c1ccc(F)c(F)c1 [Compound 31, 2-(3,4-difluorophenyl)-1-ethyl-4-oxo-6-[[3-(trifluoromethyl)pyrazol-1-yl]methyl]pyridine-3-carboxylic acid] | 1 (1=0-20%) | 5 (5=81-100%) | 0 | 0 | 3 (3=41-60%) | 0 | 4 (4=61-80%) | 5 (5=81-100%) | 2 (2=21-40%) | 2 (2=21-40%) | 4 (4=61-80%) | 2 (2=21-40%) | 1 (1=0-20%) | 2 (2=21-40%) | 4 (4=61-80%) | 0 | 4 (4=61-80%) | 1 (1=0-20%) | – | – | – |
| CCn1c(Cn2ccc(CC#N)n2)cc(=O)c(C(=O)O)c1-c1ccc(Cl)c(Cl)c1 [Compound 175, 6-[[3-(cyanomethyl)pyrazol-1-yl]methyl]-2-(3,4-dichlorophenyl)-1-ethyl-4-oxo-pyridine-3-carboxylic acid] | 1 (1=0-20%) | 1 (1=0-20%) | 0 | 0 | 1 (1=0-20%) | 0 | 2 (2=21-40%) | 3 (3=41-60%) | 2 (2=21-40%) | 0 | 3 (3=41-60%) | 0 | 0 | 1 (1=0-20%) | 1 (1=0-20%) | 0 | 0 | 0 | – | – | – |
| CCn1c(Cn2ccc(Cl)n2)cc(=O)c(C(=O)O)c1-c1ccc(Cl)c(Cl)c1 [Compound 4, 6-[(3-chloropyrazol-1-yl)methyl]-2-(3,4-dichlorophenyl)-1-ethyl-4-oxo-pyridine-3-carboxylic acid] | 3 (3=41-60%) | 5 (5=81-100%) | 1 (1=0-20%) | 3 (3=41-60%) | 3 (3=41-60%) | 2 (2=21-40%) | 4 (4=61-80%) | 5 (5=81-100%) | 4 (4=61-80%) | 4 (4=61-80%) | 4 (4=61-80%) | 2 (2=21-40%) | 2 (2=21-40%) | 4 (4=61-80%) | – | 3 (3=41-60%) | 4 (4=61-80%) | 3 (3=41-60%) | 2 (2=21-40%) | 5 (5=81-100%) | Pre-emergence Test AMAPA, percentage damage caused to the plant (five-point scale) ([3]; 250 g/Ha (*)): 0; Pre-emergence Test ZEAMX, percentage damage caused to the plant (five-point scale) (Zea mays (ZEAMX) [4]; 250 g/Ha (*)): 1 (1=0-20%); Pre-emergence Test AMARE, percentage damage caused to the plant (five-point scale) ([6]; 250 g/Ha (*)): 0; Pre-emergence Test SETFA, percentage damage caused to the plant (five-point scale) (Setaria faberi (SETFA) [8]; 250 g/Ha (*)): 5 (5=81-100%) |
| CCn1c(Cn2ccc(C(F)(F)F)n2)cc(=O)c(C(=O)O)c1-c1ccc(Cl)c(Cl)c1 [Compound 2, 2-(3,4-dichlorophenyl)-1-ethyl-4-oxo-6-[[3-(trifluoromethyl)pyrazol-1-yl]methyl]pyridine-3-carboxylic acid] | 3 (3=41-60%) | 5 (5=81-100%) | 3 (3=41-60%) | 4 (4=61-80%) | 4 (4=61-80%) | 3 (3=41-60%) | 4 (4=61-80%) | 5 (5=81-100%) | 4 (4=61-80%) | 4 (4=61-80%) | 5 (5=81-100%) | 4 (4=61-80%) | 4 (4=61-80%) | 4 (4=61-80%) | 3 (3=41-60%) | 3 (3=41-60%) | 4 (4=61-80%) | 3 (3=41-60%) | 4 (4=61-80%) | 5 (5=81-100%) | Pre-emergence Test AMAPA, percentage damage caused to the plant (five-point scale) ([3]; 250 g/Ha (*)): 0; Pre-emergence Test ZEAMX, percentage damage caused to the plant (five-point scale) (Zea mays (ZEAMX) [4]; 250 g/Ha (*)): 4 (4=61-80%); Pre-emergence Test AMARE, percentage damage caused to the plant (five-point scale) ([6]; 250 g/Ha (*)): 1 (1=0-20%); Pre-emergence Test SETFA, percentage damage caused to the plant (five-point scale) (Setaria faberi (SETFA) [8]; 250 g/Ha (*)): 5 (5=81-100%) |
